As usually defined, the inhibition is the relative decrease from the control value, in per cent.

The record followed here is US4450269A, “Mono-5-substituted-3-chloro-4H-1,2,6-thiadiazin-4-one antifungal agents” (FMC Corporation, priority 1980, dated 1984).

Structures can show the parent of a compound that is named as a salt.

Assay [1] deals with Phytophthora infestans. The assay is described as follows: whole plant or invertebrate. In kind it is in vivo. To be noted: for pest or weed control at 150 ppm: Phytophthora infestans, in Solanum lycopersicum, foliar, read-out: Percent Disease Control, foliar, tomato late blight, 150 ppm, protective; for Percent Disease Control, foliar, tomato late blight: 150 ppm, protective.
The test system of assay [2] is Pyricularia oryzae. The assay is described as follows: microbe, parasite or virus in culture. The format is cell-based. To be noted: for inhibition at 5 ppm / inhibition at 10 ppm / inhibition at 20 ppm / inhibition at 40 ppm: Pyricularia oryzae, 72 h; for inhibition at 5 ppm: read-out: Percent Fungus Growth Inhibition, PO, 5 ppm, 72 hours; for inhibition at 10 ppm: read-out: Percent Fungus Growth Inhibition, PO, 10 ppm, 72 hours; for inhibition at 20 ppm: read-out: Percent Fungus Growth Inhibition, PO, 20 ppm, 72 hours; for inhibition at 40 ppm: read-out: Percent Fungus Growth Inhibition, PO, 40 ppm, 72 hours; for Percent Fungus Growth Inhibition: PO, 72 hours.

Assay [3] deals with Pyricularia oryzae. The experiment in a line: whole plant or invertebrate. The format is in vivo. The note with it: for pest or weed control at 150 ppm: Pyricularia oryzae, foliar, 24 h, read-out: Percent Disease Control, curative, rice blast, 150 ppm, 24 hours after inoculation; for Percent Disease Control, curative, rice blast: 150 ppm, 24 hours after inoculation.

For `Cc1cc(C)cc(Oc2nsnc(Cl)c2=O)c1` [Compound 25, 3-chloro-5-(3,5-dimethylphenoxy)-4H--1,2,6-thiadiazin-4-one], the pest or weed control at 150 ppm in assay [1] was 100%. Moreover, in assay [2], the inhibition at 5 ppm stood at 33%, the inhibition at 10 ppm came out at 58%, the inhibition at 20 ppm is 54% and the inhibition at 40 ppm was 63%. Besides, in assay [3], the pest or weed control at 150 ppm was 0%.

Turning to `Nc1ccc(Oc2nsnc(Cl)c2=O)cc1` [Compound 26, 5-(4-aminophenoxy)-3-chloro-4H--1,2,6-thiadiazin-4-one], the “Percent Disease Control, foliar, tomato late blight” value in assay [1] is given as 0%. Also, the “Percent Fungus Growth Inhibition” value came out at 0% in assay [2] (5 ppm), 48% in assay [2] (10 ppm) and 90% in assay [2] (20 ppm). For the same compound, in assay [2], the inhibition at 40 ppm is 100%. In addition, the “Percent Disease Control, curative, rice blast” value in assay [3] turned out to be 0%.

Take `Nc1ccc(Oc2nsnc(Cl)c2=O)cc1` [Compound 27, 5-(4-aminophenoxy)-3-chloro-4H--1,2,6-thiadiazine-4-one hydrochloride]: the “Percent Disease Control, foliar, tomato late blight” value in assay [1] (hydrochloride) was 98%. For the same compound, the “Percent Fungus Growth Inhibition” value in assay [2] (5 ppm, hydrochloride) is 24%; in assay [2] (10 ppm, hydrochloride) it was 24%; in assay [2] (20 ppm, hydrochloride), 0%; in assay [2] (40 ppm, hydrochloride), 81%. The “Percent Disease Control, curative, rice blast” value in assay [3] (hydrochloride) came out at 95%.

On to `CNC(=O)Nc1ccc(Oc2nsnc(Cl)c2=O)cc1` [Compound 28, 3-chloro-5-[4-(3-methylureido)-phenoxy]-4H--1,2,6-thiadiazin-4-one], for which the pest or weed control at 150 ppm in assay [1] came out at 90%. Moreover, in assay [2], the inhibition at 5 ppm was found to be 24%, the inhibition at 10 ppm worked out at 24%, the inhibition at 20 ppm came to 52% and the inhibition at 40 ppm came out at 90%. The pest or weed control at 150 ppm in assay [3] turned out to be 0%.

Take `O=C(Nc1ccccc1)Nc1ccc(Oc2nsnc(Cl)c2=O)cc1` [Compound 29, 3-chloro-5-[4-(3-phenylureido)-phenoxy]-4H--1,2,6-thiadiazin-4-one]: in assay [1], the pest or weed control at 150 ppm amounted to 100%. Besides, in assay [2], the inhibition at 5 ppm was 19%, the inhibition at 10 ppm is 14%, the inhibition at 20 ppm was found to be 0% and the inhibition at 40 ppm is 0%. Further, in assay [3], the pest or weed control at 150 ppm amounted to 0%.

For `O=c1c(Cl)nsnc1Oc1c(Cl)cc(Cl)cc1Cl` [Compound 30, 3-chloro-5-(2,4,6-trichlorophenoxy)-4H--1,2,6-thiadiazin-4-one], in assay [1], the pest or weed control at 150 ppm turned out to be 0%. In assay [2], the inhibition at 5 ppm is 10%, the inhibition at 10 ppm turned out to be 71%, the inhibition at 20 ppm stood at 84% and the inhibition at 40 ppm was 90%. In addition, in assay [3], the pest or weed control at 150 ppm is 0%.

For the compound `O=c1c(Cl)nsnc1Oc1c(Cl)c(Cl)c(Cl)c(Cl)c1Cl` [Compound 31, 3-chloro-5-(pentachlorophenoxy)-4H--1,2,6-thiadiazine-4-one], the pest or weed control at 150 ppm in assay [1] worked out at 0%. Besides, in assay [2], the inhibition at 5 ppm is 33%, the inhibition at 10 ppm worked out at 48%, the inhibition at 20 ppm turned out to be 62% and the inhibition at 40 ppm amounted to 57%. The pest or weed control at 150 ppm in assay [3] stood at 0%.

For the compound `O=c1c(Cl)nsnc1Oc1cccc2ccccc12` [Compound 32, 3-chloro-5(1-naphthoxy)-4H-1,2,6-thiadiazin-4-one], the pest or weed control at 150 ppm in assay [1] was found to be 0%. In assay [2], the inhibition at 5 ppm amounted to 67%, the inhibition at 10 ppm is 78%, the inhibition at 20 ppm stood at 100% and the inhibition at 40 ppm came out at 89%. Also, the pest or weed control at 150 ppm in assay [3] was 0%.

In the case of `O=c1c(Cl)nsnc1Oc1ccccc1Br` [Compound 34, 3-chloro-5-(2-bromophenoxy)-4H-1,2,6,-thiadiazin-4-one], the pest or weed control at 150 ppm in assay [1] stood at 0%. Also, in assay [2], the inhibition at 5 ppm worked out at 38%, the inhibition at 10 ppm came out at 65%, the inhibition at 20 ppm is 100% and the inhibition at 40 ppm is 100%. Also, the pest or weed control at 150 ppm in assay [3] amounted to 0%.

As to `O=c1c(Cl)nsnc1Oc1ccc(O)cc1` [Compound 35, 3-chloro-5-(4-hydroxyphenoxy)-4H-1,2,6-thiadiazin-4-one], the pest or weed control at 150 ppm in assay [1] turned out to be 100%. Besides, in assay [2], the inhibition at 5 ppm was determined as 23%, the inhibition at 10 ppm came to 38%, the inhibition at 20 ppm was 100% and the inhibition at 40 ppm was found to be 100%. In addition, the pest or weed control at 150 ppm in assay [3] was 0%.

Turning to `O=C(Nc1ccccc1)Oc1ccc(Oc2nsnc(Cl)c2=O)cc1` [Compound 37, 3-chloro-5-[4-(phenylaminocarbonyloxy)phenoxy]-4H-1,2,6,-thiadiazin-4-one], the pest or weed control at 150 ppm in assay [1] is 0%. Also, in assay [2], the inhibition at 5 ppm is 44%, the inhibition at 10 ppm was determined as 44%, the inhibition at 20 ppm was determined as 61% and the inhibition at 40 ppm came out at 61%. In addition, the pest or weed control at 150 ppm in assay [3] was determined as 0%.

In the case of `O=C(OCc1ccccc1)Oc1ccc(Oc2nsnc(Cl)c2=O)cc1` [Compound 38, 3-chloro-5-[4-(phenylmethoxycarbonyloxy)phenoxyl]-4H-1,2,6-thiadiazin-4-one], the pest or weed control at 150 ppm in assay [1] amounted to 0%. Moreover, in assay [2], the inhibition at 5 ppm was found to be 8%, the inhibition at 10 ppm came to 15%, the inhibition at 20 ppm came out at 23% and the inhibition at 40 ppm was found to be 46%. The pest or weed control at 150 ppm in assay [3] was determined as 0%.

Take `CSc1ccc(Oc2nsnc(Cl)c2=O)cc1` [Compound 39, 3-chloro-5-[(4-methylthio)phenoxy]-4H-1,2,6,-thiadiazin-4-one]: the pest or weed control at 150 ppm in assay [1] was found to be 0%. Also, in assay [2], the inhibition at 5 ppm turned out to be 42%, the inhibition at 10 ppm was determined as 61%, the inhibition at 20 ppm came to 61% and the inhibition at 40 ppm was determined as 61%. For the same compound, the pest or weed control at 150 ppm in assay [3] worked out at 0%.

In the case of `C[S+]([O-])c1ccc(Oc2nsnc(Cl)c2=O)cc1` (stereo not drawn) [Compound 40, 3-chloro-5-[(4-methylsulfinyl)phenoxy]-4H-1,2,6,-thiadiazin-4-one], in assay [1], the pest or weed control at 150 ppm amounted to 75%. Moreover, in assay [2], the inhibition at 5 ppm is 33%, the inhibition at 10 ppm turned out to be 47%, the inhibition at 20 ppm stood at 42% and the inhibition at 40 ppm was found to be 89%. Besides, the pest or weed control at 150 ppm in assay [3] worked out at 0%.

As for `CS(=O)(=O)c1ccc(Oc2nsnc(Cl)c2=O)cc1` [Compound 41, 3-chloro-5-[(4-methylsulfonyl)phenoxy]-4H--1,2,6-thiadiazin-4-one], in assay [1], the pest or weed control at 150 ppm is 90%. For the same compound, in assay [2], the inhibition at 5 ppm was 22%, the inhibition at 10 ppm was 56%, the inhibition at 20 ppm worked out at 59% and the inhibition at 40 ppm was found to be 93%. In addition, the pest or weed control at 150 ppm in assay [3] was 0%.

On to `CC(=O)Nc1cccc(Oc2nsnc(Cl)c2=O)c1` [Compound 42, 3-[(3-N--acetylamino)-phenoxy]-5-chloro-4H--1,2,6-thiadiazin-4-one], for which the pest or weed control at 150 ppm in assay [1] came to 0%. Moreover, in assay [2], the inhibition at 5 ppm stood at 7%, the inhibition at 10 ppm amounted to 11%, the inhibition at 20 ppm is 32% and the inhibition at 40 ppm came to 68%. The pest or weed control at 150 ppm in assay [3] was found to be 0%.

With `CC(=O)Nc1ccccc1Oc1nsnc(Cl)c1=O` [Compound 43, 3-[(2-acetylamino)-phenoxy]-5-chloro-4H--1,2,6-thiadiazin-4-one], the pest or weed control at 150 ppm in assay [1] came to 0%. Moreover, in assay [2], the inhibition at 5 ppm came to 13%, the inhibition at 10 ppm was 18%, the inhibition at 20 ppm turned out to be 24% and the inhibition at 40 ppm was 24%. In assay [3], the pest or weed control at 150 ppm stood at 0%.

`O=c1c(Cl)nsnc1Oc1cccc(C(F)(F)F)c1` [Compound 44, 3-chloro-5-[(3-trifluoromethyl)phenoxy]-4H--1,2,6-thiadiazin-4-one]: the pest or weed control at 150 ppm in assay [1] is 0%. Moreover, in assay [2], the inhibition at 5 ppm stood at 54%, the inhibition at 10 ppm came to 71%, the inhibition at 20 ppm is 93% and the inhibition at 40 ppm turned out to be 100%. Further, the pest or weed control at 150 ppm in assay [3] is 0%.

As to `O=C(O)Cc1ccccc1Oc1nsnc(Cl)c1=O` [Compound 45, 3-(2-carboxymethylphenoxy)-5-chloro-4H--1,2,6-thiadiazin-4-one], the pest or weed control at 150 ppm in assay [1] is 0%. Further, in assay [2], the inhibition at 5 ppm was 0%, the inhibition at 10 ppm stood at 0%, the inhibition at 20 ppm was 0% and the inhibition at 40 ppm was determined as 11%. Besides, the pest or weed control at 150 ppm in assay [3] turned out to be 0%.

Take `N#CCc1ccc(Oc2nsnc(Cl)c2=O)cc1` [Compound 46, 3-chloro-5-[(4-cyanomethyl)-phenoxy]4H--1,2,6-thiadiazin-4-one]: the pest or weed control at 150 ppm in assay [1] was 75%. In assay [2], the inhibition at 5 ppm was 38%, the inhibition at 10 ppm was 77%, the inhibition at 20 ppm worked out at 100% and the inhibition at 40 ppm worked out at 100%. Besides, the pest or weed control at 150 ppm in assay [3] stood at 0%.

On to `CC(=O)c1ccc(Oc2nsnc(Cl)c2=O)cc1` [Compound 47, 3-(4-acetylphenoxy)-5-chloro-4H--1,2,6-thiadiazin-4-one], for which the pest or weed control at 150 ppm in assay [1] was found to be 95%. In addition, in assay [2], the inhibition at 5 ppm worked out at 78%, the inhibition at 10 ppm stood at 78%, the inhibition at 20 ppm stood at 100% and the inhibition at 40 ppm was 89%. Also, in assay [3], the pest or weed control at 150 ppm came to 90%.

As to `CC(=O)c1cccc(Oc2nsnc(Cl)c2=O)c1` [Compound 48, 3-(3-acetylphenoxy)-5-chloro-4H--1,2,6-thiadiazin-4-one], the pest or weed control at 150 ppm in assay [1] was 98%. In assay [2], the inhibition at 5 ppm stood at 56%, the inhibition at 10 ppm was 67%, the inhibition at 20 ppm came to 100% and the inhibition at 40 ppm was found to be 100%. Moreover, the pest or weed control at 150 ppm in assay [3] was 50%.

For `CC(=O)c1ccccc1Oc1nsnc(Cl)c1=O` [Compound 49, 3-(2-acetylphenoxy)-5-chloro-4H--1,2,6-thiadiazin-4-one], the pest or weed control at 150 ppm in assay [1] stood at 90%. Besides, in assay [2], the inhibition at 5 ppm turned out to be 29%, the inhibition at 10 ppm was 38%, the inhibition at 20 ppm worked out at 53% and the inhibition at 40 ppm is 74%. In addition, the pest or weed control at 150 ppm in assay [3] amounted to 0%.

Consider `O=C(O)c1ccc(Oc2nsnc(Cl)c2=O)cc1` [Compound 50, 3-(4-carboxyphenoxy)-5-chloro-4H--1,2,6-thiadiazin-4-one], for which the pest or weed control at 150 ppm in assay [1] was 0%. In addition, in assay [2], the inhibition at 5 ppm was 11%, the inhibition at 10 ppm was 0%, the inhibition at 20 ppm was 11% and the inhibition at 40 ppm stood at 100%. In assay [3], the pest or weed control at 150 ppm came to 90%.
